Source: patent publication US8809333B2, “Imidazole, pyrazole, and triazole derivatives useful as antibacterial agents” (Pfizer Inc., priority 2011, dated 2014)
≈ marks a conversion by molar mass, not a printed value. Like-named read-outs stand apart in the source and are kept apart here.

Tests used:
[1] = tested on: Klebsiella pneumoniae: Ciprofloxacin-resistant isolate, expresses ESBL, clinical isolate (KP-3700); assay: MIC determination (CLSI), KP-3700; type: cell-based; settings: overnight incubation, lower of duplicate values
How it was run: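 Broth dilution MIC per CLSI M7-A8 against the ciprofloxacin-resistant, ESBL-expressing clinical isolate, 2-fold concentration steps, overnight incubation, visual read of lowest growth-inhibiting concentration. Tested in duplicate; lower value reported when within 2-fold; control organisms and reference compounds required within range.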

[2] = tested on: Pseudomonas aeruginosa UI-18: Wild-type (PA-7); assay: MIC determination (CLSI), PA-7; type: cell-based; settings: Pseudomonas aeruginosa UI-18 wild-type; overnight incubation; lower of duplicate values; read-out: PA-7 (MIC)
How it was run: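 Broth dilution MIC per CLSI M7-A8, using 2-fold compound dilutions incubated overnight; MIC is the lowest concentration with no visible growth versus the drug-free control. Run in duplicate, lower value reported when within 2-fold. Control organisms and reference compounds were included for QC.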

[3] = tested on: Escherichia coli EC-1: VOGEL, mouse virulent; assay: MIC determination (CLSI), EC-1; type: cell-based; settings: Escherichia coli, read-out: EC-1 (MIC)
How it was run: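 Broth dilution MIC per CLSI M7-A8, with 2-fold compound dilutions incubated overnight with a standard inoculum. MIC is the lowest concentration visibly inhibiting growth versus drug-free control; tested in duplicate, reporting the lower value when within 2-fold, with QC organisms and reference compounds required in range.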

[4] = target: T1, Pseudomonas aeruginosa LpxC enzyme (Pseudomonas aeruginosa, UniProt P47205); assay: IC50 assay, LpxC enzyme from P. aeruginosa (BioTrove RapidFire mass spectrometry); type: biochemical
T1 construct: made in house; host or cells: E. coli
T1 sequence (P47205 1-303): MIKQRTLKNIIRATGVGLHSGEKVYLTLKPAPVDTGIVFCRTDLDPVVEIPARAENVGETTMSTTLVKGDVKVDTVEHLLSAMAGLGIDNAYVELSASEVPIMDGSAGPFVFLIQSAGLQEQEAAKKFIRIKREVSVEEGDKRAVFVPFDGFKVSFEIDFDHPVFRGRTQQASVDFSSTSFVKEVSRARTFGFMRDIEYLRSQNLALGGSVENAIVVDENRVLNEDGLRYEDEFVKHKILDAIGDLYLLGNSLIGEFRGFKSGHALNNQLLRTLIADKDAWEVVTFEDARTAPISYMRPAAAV
How it was run: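 P. aeruginosa LpxC reaction run 1 hour, stopped with 1 N HCl, and substrate-to-product conversion quantified by RapidFire mass spectrometry. IC50 calculated from percent conversion using a no-enzyme control.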

[5] = tested on: Acinetobacter baumannii/haemolyticus: Multidrug-resistant clinical isolate (AB-3167); assay: MIC determination (CLSI), AB-3167; type: cell-based; settings: Acinetobacter baumannii/haemolyticus multidrug-resistant clinical isolate; overnight incubation; lower of duplicate values; read-out: AB-3167 (MIC)
How it was run: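 Broth dilution MIC per CLSI M7-A8, 2-fold concentration steps, overnight incubation, visual read of lowest concentration inhibiting growth versus drug-free control. Tested in duplicate; lower value reported if within 2-fold, otherwise repeated; QC organisms and reference drugs required within range.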

[6] = P. aeruginosa LpxC enzyme 0.1 nM, 25° C., 1 hour, pH 8.0, read-out: PA: IC50

| Compound | KP-3700 (MIC) [1] [µg/mL] | MIC [2] [µg/mL] | MIC [3] [µg/mL] | IC50 [4, 6] [nM] | MIC [5] [µg/mL] | IC50 [4] [nM] |
| --- | --- | --- | --- | --- | --- | --- |
| CC(CCn1cc(-c2ccc(-c3csnn3)cc2)cn1)(C(=O)NO)S(C)(=O)=O (stereo not shown) [Example 90, N-hydroxy-2-methyl-2-(methylsulfonyl)-4-{4-[4-(1,2,3-thiadiazol-4-yl)phenyl]-1H-pyrazol-1-yl}butanamide] | 64 | 4 (≈ 9.49 µM) | 16 (≈ 38 µM) | 1.23 | > 64 | – |
| CC(C)(C)c1cccc(OCc2cn(CCC(C)(C(=O)NO)S(C)(=O)=O)nn2)c1 (stereo not shown) [Example 35, 4-{4-[(3-t-butylphenoxy)methyl]-1H-1,2,3-triazol-1-yl}-N-hydroxy-2-methyl-2-(methylsulfonyl)butanamide] | >64.0 | > 64 | > 64 | 24 | > 64 | – |
| Cc1cc(-c2ccc(-c3cnn(CCC(C)(C(=O)NO)S(C)(=O)=O)c3)cc2)[nH]n1 (stereo not shown) [Example 84, N-hydroxy-2-methyl-4-{4-[4-(3-methyl-1H-pyrazol-5-yl)phenyl]-1H-pyrazol-1-yl}-2-(methylsulfonyl)butanamide] | >64.0 | 64 (≈ 153 µM) | 16 (≈ 38.3 µM) | 6.44 | > 64 | – |
| COc1ccc(-c2cn(CC[C@](C)(C(=O)NO)S(C)(=O)=O)nn2)c(Cl)c1 [Example 16, (2R)-4-[4-(2-chloro-4-methoxyphenyl)-1H-1,2,3-triazol-1-yl]-N-hydroxy-2-methyl-2-(methylsulfonyl)butanamide] | 32 | 8 (≈ 19.9 µM) | 8 (≈ 19.9 µM) | – | > 64 | 4.71 |
| CC(CCn1cc(-c2ccc(F)c(C#N)c2)cn1)(C(=O)NO)S(C)(=O)=O (stereo not shown) [Example 59, 4-[4-(3-cyano-4-fluorophenyl)-1H-pyrazol-1-yl]-N-hydroxy-2-methyl-2-(methylsulfonyl)butanamide] | >64.0 | 64 (≈ 168 µM) | > 64 | 11.6 | > 64 | – |
| CC(CCn1cc(-c2cccc(OC(F)(F)F)c2)cn1)(C(=O)NO)S(C)(=O)=O (stereo not shown) [Example 88, N-hydroxy-2-methyl-2-(methylsulfonyl)-4-{4-[3-(trifluoromethoxy)phenyl]-1H-pyrazol-1-yl}butanamide] | >64.0 | 8 (≈ 19 µM) | 32 (≈ 75.9 µM) | 0.652 | 64 (≈ 152 µM) | – |
| COc1ccc(-c2cnn(CCC(C)(C(=O)NO)S(C)(=O)=O)c2)cc1F (stereo not shown) [Example 60, 4-[4-(3-fluoro-4-methoxyphenyl)-1H-pyrazol-1-yl]-N-hydroxy-2-methyl-2-(methylsulfonyl)butanamide] | >64.0 | 8 (≈ 20.8 µM) | 64 (≈ 166 µM) | 20.1 | > 64 | – |
| CC(CCn1cc(-c2ccccc2C#N)cn1)(C(=O)NO)S(C)(=O)=O (stereo not shown) [Example 46, 4-[4-(2-cyanophenyl)-1H-pyrazol-1-yl]-N-hydroxy-2-methyl-2-(methylsulfonyl)butanamide] | >64.0 | 32 (≈ 88.3 µM) | 4 (≈ 11 µM) | 72.5 | > 64 | – |
| C[C@@](CCn1cc(-c2cnc3ccccc3n2)cn1)(C(=O)NO)S(C)(=O)=O [Example 9, (2R)—N-hydroxy-2-methyl-2-(methylsulfonyl)-4-[4-(quinoxalin-2-yl)-1H-pyrazol-1-yl]butanamide] | >64.0 | > 64 | > 64 | 19 | > 64 | – |
| Cc1ccc(-c2cn(CCC(C)(C(=O)NO)S(C)(=O)=O)nn2)cc1 (stereo not shown) [Example 37, N-hydroxy-2-methyl-4-[4-(4-methylphenyl)-1H-1,2,3-triazol-1-yl]-2-(methylsulfonyl)butanamide] | 64 | 4 (≈ 11.4 µM) | 16 (≈ 45.4 µM) | – | > 64 | 1.39 |
| Cc1c(-c2ccccc2)nnn1CC[C@](C)(C(=O)NO)S(C)(=O)=O [Example 15, (2R)—N-hydroxy-2-methyl-4-(5-methyl-4-phenyl-1H-1,2,3-triazol-1-yl)-2-(methylsulfonyl)butanamide] | >64.0 | 32 (≈ 90.8 µM) | > 64 | 21.3 | > 64 | – |
| CC(CCn1cc(-c2ccc3c(c2)CCO3)cn1)(C(=O)NO)S(C)(=O)=O (stereo not shown) [Example 58, 4-[4-(2,3-dihydro-1-benzofuran-5-yl)-1H-pyrazol-1-yl]-N-hydroxy-2-methyl-2-(methylsulfonyl)butanamide] | >64.0 | 4 (≈ 10.5 µM) | > 64 | 1.17 | > 64 | – |
| CCc1nc2ccc(-c3cnn(CCC(C)(C(=O)NO)S(C)(=O)=O)c3)cc2s1 (stereo not shown) [Example 91, 4-[4-(2-ethyl-1,3-benzothiazol-6-yl)-1H-pyrazol-1-yl]-N-hydroxy-2-methyl-2-(methylsulfonyl)butanamide] | >64.0 | 16 (≈ 37.9 µM) | 32 (≈ 75.7 µM) | 2.55 | > 64 | – |
| Cc1cnn(CC[C@](C)(C(=O)NO)S(C)(=O)=O)c1 [Example 5, (2R)—N-hydroxy-2-methyl-4-(4-methyl-1H-pyrazol-1-yl)-2-(methylsulfonyl)butanamide] | >64.0 | 32 (≈ 116 µM) | > 64 | > 100 | > 64 | – |
| C[C@@](CCn1cc(-c2ccccc2)cn1)(C(=O)NO)S(C)(=O)=O [Example 6, (2R)—N-hydroxy-2-methyl-2-(methylsulfonyl)-4-(4-phenyl-1H-pyrazol-1-yl)butanamide] | 64 | 1 (≈ 2.96 µM) | 16 (≈ 47.4 µM) | – | > 64 | 1.61 |
| C[C@@](CCn1cc(-c2cccc(F)c2F)nn1)(C(=O)NO)S(C)(=O)=O [Example 17, (2R)-4-[4-(2,3-difluorophenyl)-1H-1,2,3-triazol-1-yl]-N-hydroxy-2-methyl-2-(methylsulfonyl)butanamide] | 64 | 4 (≈ 10.7 µM) | 32 (≈ 85.5 µM) | – | > 64 | 8.08 |
| C[C@@](CCn1cc(-c2ccccc2)nn1)(C(=O)NO)S(C)(=O)=O [Example 14, (2R)—N-hydroxy-2-methyl-2-(methylsulfonyl)-4-(4-phenyl-1H-1,2,3-triazol-1-yl)butanamide] | 32 | 2 (≈ 5.91 µM) | 32 (≈ 94.6 µM) | – | > 64 | 0.85 |
| C[C@@](CCn1cc(C#N)cn1)(C(=O)NO)S(C)(=O)=O [Example 7, (2R)-4-(4-cyano-1H-pyrazol-1-yl)-N-hydroxy-2-methyl-2-(methylsulfonyl)butanamide] | >64.0 | > 64 | > 64 | 620 | > 64 | – |
| CC(CCn1cc(-c2ccc3c(c2)OCCO3)cn1)(C(=O)NO)S(C)(=O)=O (stereo not shown) [Example 63, 4-[4-(2,3-dihydro-1,4-benzodioxin-6-yl)-1H-pyrazol-1-yl]-N-hydroxy-2-methyl-2-(methylsulfonyl)butanamide] | >64.0 | 4 (≈ 10.1 µM) | > 64 | 6.75 | > 64 | – |
| CCc1ccccc1SCc1cn(CCC(C)(C(=O)NO)S(C)(=O)=O)nn1 (stereo not shown) [Example 32, 4-(4-{[(2-ethylphenyl)sulfanyl]methyl}-1H-1,2,3-triazol-1-yl)-N-hydroxy-2-methyl-2-(methylsulfonyl)butanamide] | >64.0 | > 64 | > 64 | 50.9 | > 64 | – |
